Measured values taken from ChEMBL document CHEMBL3045802, “Synthesis and in vitro antitumor activity of new quinoline, pyrimido[4,5-b]quinoline, [1,2,3]triazino[4,5-b]quinoline, and [1,2,4]triazolo[2,3:3,4]pyrimido[6,5-b]quinoline analogs” (2013).

Experiments:
Format in all cases: functional
OVCAR-3 = experiment: Cytotoxicity against Homo sapiens (human) OVCAR3 cells assessed as growth inhibition at 10 uM after 48 hr by coulter counter analysis; conditions: OVCAR-3, 48 h, read-out: GI
TK-10 = experiment: Cytotoxicity against Homo sapiens (human) TK10 cells assessed as growth inhibition at 10 uM after 48 hr by coulter counter analysis; conditions: TK-10, 48 h, read-out: GI
DU-145 = experiment: Cytotoxicity against Homo sapiens (human) DU145 cells assessed as growth inhibition at 10 uM after 48 hr by coulter counter analysis; conditions: DU-145, 48 h, read-out: GI
EKVX = experiment: Cytotoxicity against Homo sapiens (human) EKVX cells assessed as growth inhibition at 10 uM after 48 hr by coulter counter analysis; conditions: read-out: GI
HCT-15 = experiment: Cytotoxicity against Homo sapiens (human) HCT15 cells assessed as growth inhibition at 10 uM after 48 hr by coulter counter analysis; conditions: HCT-15, 48 h, read-out: GI
OVCAR-5 = experiment: Cytotoxicity against Homo sapiens (human) OVCAR5 cells assessed as growth inhibition at 10 uM after 48 hr by coulter counter analysis; conditions: OVCAR-5, 48 h, read-out: GI
RPMI-8226 = experiment: Cytotoxicity against Homo sapiens (human) RPMI8226 cells assessed as growth inhibition at 10 uM after 48 hr by coulter counter analysis; conditions: RPMI-8226, 48 h, read-out: GI
T47D = experiment: Cytotoxicity against Homo sapiens (human) T47D cells assessed as growth inhibition at 10 uM after 48 hr by coulter counter analysis; conditions: read-out: GI
MDA-MB-468 = experiment: Cytotoxicity against Homo sapiens (human) MDA-MB-468 cells assessed as growth inhibition at 10 uM after 48 hr by coulter counter analysis; conditions: MDA-MB-468, 48 h, read-out: GI
MDA-MB-435 = experiment: Cytotoxicity against Homo sapiens (human) MDA-MB-435 cells assessed as growth inhibition at 10 uM after 48 hr by coulter counter analysis; conditions: MDA-MB-435, 48 h, read-out: GI
SF-539 = experiment: Cytotoxicity against Homo sapiens (human) SF539 cells assessed as growth inhibition at 10 uM after 48 hr by coulter counter analysis; conditions: SF-539, 48 h, read-out: GI
BT-549 = experiment: Cytotoxicity against Homo sapiens (human) BT549 cells assessed as growth inhibition at 10 uM after 48 hr by coulter counter analysis; conditions: BT-549, 48 h, read-out: GI
PC-3 = experiment: Cytotoxicity against Homo sapiens (human) PC3 cells assessed as growth inhibition at 10 uM after 48 hr by coulter counter analysis; conditions: PC-3, 48 h, read-out: GI
SK-MEL-2 = experiment: Cytotoxicity against Homo sapiens (human) SK-MEL-2 cells assessed as growth inhibition at 10 uM after 48 hr by coulter counter analysis; conditions: SK-MEL-2, 48 h, read-out: GI
A498 = experiment: Cytotoxicity against Homo sapiens (human) A498 cells assessed as growth inhibition at 10 uM after 48 hr by coulter counter analysis; conditions: A498, 48 h, read-out: GI
SF-268 = experiment: Cytotoxicity against Homo sapiens (human) SF268 cells assessed as growth inhibition at 10 uM after 48 hr by coulter counter analysis; conditions: SF-268, 48 h, read-out: GI
MCF7 = experiment: Cytotoxicity against Homo sapiens (human) MCF7 cells assessed as growth inhibition at 10 uM after 48 hr by coulter counter analysis; conditions: MCF7, 48 h, read-out: GI
COLO 205 = experiment: Cytotoxicity against Homo sapiens (human) COLO205 cells assessed as growth inhibition at 10 uM after 48 hr by coulter counter analysis; conditions: COLO 205, 48 h, read-out: GI
SK-OV-3 = experiment: Cytotoxicity against Homo sapiens (human) SKOV3 cells assessed as growth inhibition at 10 uM after 48 hr by coulter counter analysis; conditions: SK-OV-3, 48 h, read-out: GI
HCC 2998 = experiment: Cytotoxicity against Homo sapiens (human) HCC2998 cells assessed as growth inhibition at 10 uM after 48 hr by coulter counter analysis; conditions: HCC 2998, 48 h, read-out: GI
HT-29 = experiment: Cytotoxicity against Homo sapiens (human) HT-29 cells assessed as growth inhibition at 10 uM after 48 hr by coulter counter analysis; conditions: HT-29, 48 h, read-out: GI
NCI-H226 = experiment: Cytotoxicity against Homo sapiens (human) NCI-H226 cells assessed as growth inhibition at 10 uM after 48 hr by coulter counter analysis; conditions: NCI-H226, 48 h, read-out: GI
SK-MEL-5 = experiment: Cytotoxicity against Homo sapiens (human) SK-MEL-5 cells assessed as growth inhibition at 10 uM after 48 hr by coulter counter analysis; conditions: SK-MEL-5, 48 h, read-out: GI
HL-60(TB) = experiment: Cytotoxicity against Homo sapiens (human) HL-60(TB) cells assessed as growth inhibition at 10 uM after 48 hr by coulter counter analysis; conditions: HL-60, 48 h, read-out: GI
SNB-75 = experiment: Cytotoxicity against Homo sapiens (human) SNB75 cells assessed as growth inhibition at 10 uM after 48 hr by coulter counter analysis; conditions: SNB-75, 48 h, read-out: GI
786-0 = experiment: Cytotoxicity against Homo sapiens (human) 786-0 cells assessed as growth inhibition at 10 uM after 48 hr by coulter counter analysis; conditions: 786-0, 48 h, read-out: GI
SF-295 = experiment: Cytotoxicity against Homo sapiens (human) SF295 cells assessed as growth inhibition at 10 uM after 48 hr by coulter counter analysis; conditions: SF-295, 48 h, read-out: GI
HOP-92 = experiment: Cytotoxicity against Homo sapiens (human) HOP92 cells assessed as growth inhibition at 10 uM after 48 hr by coulter counter analysis; conditions: HOP-92, 48 h, read-out: GI
NCI-H23 = experiment: Cytotoxicity against Homo sapiens (human) NCI-H23 cells assessed as growth inhibition at 10 uM after 48 hr by coulter counter analysis; conditions: NCI-H23, 48 h, read-out: GI
IGROV-1 = experiment: Cytotoxicity against Homo sapiens (human) IGROV1 cells assessed as growth inhibition at 10 uM after 48 hr by coulter counter analysis; conditions: IGROV-1, 48 h, read-out: GI
ACHN = experiment: Cytotoxicity against Homo sapiens (human) ACHN cells assessed as growth inhibition at 10 uM after 48 hr by coulter counter analysis; conditions: read-out: GI
MOLT-4 = experiment: Cytotoxicity against Homo sapiens (human) MOLT4 cells assessed as growth inhibition at 10 uM after 48 hr by coulter counter analysis; conditions: MOLT-4, 48 h, read-out: GI
SN12C = experiment: Cytotoxicity against Homo sapiens (human) SN12C cells assessed as growth inhibition at 10 uM after 48 hr by coulter counter analysis; conditions: read-out: GI
M14 = experiment: Cytotoxicity against Homo sapiens (human) M14 cells assessed as growth inhibition at 10 uM after 48 hr by coulter counter analysis; conditions: M14, 48 h, read-out: GI

SMILES	inhibition of growth at 10 µM (OVCAR-3) [%]	inhibition of growth at 10 µM (TK-10) [%]	inhibition of growth at 10 µM (DU-145) [%]	inhibition of growth at 10 µM (EKVX) [%]	inhibition of growth at 10 µM (HCT-15) [%]	inhibition of growth at 10 µM (OVCAR-5) [%]	inhibition of growth at 10 µM (RPMI-8226) [%]	inhibition of growth at 10 µM (T47D) [%]	inhibition of growth at 10 µM (MDA-MB-468) [%]	inhibition of growth at 10 µM (MDA-MB-435) [%]	inhibition of growth at 10 µM (SF-539) [%]	inhibition of growth at 10 µM (BT-549) [%]	inhibition of growth at 10 µM (PC-3) [%]	inhibition of growth at 10 µM (SK-MEL-2) [%]	inhibition of growth at 10 µM (A498) [%]	inhibition of growth at 10 µM (SF-268) [%]	inhibition of growth at 10 µM (MCF7) [%]	inhibition of growth at 10 µM (COLO 205) [%]	inhibition of growth at 10 µM (SK-OV-3) [%]	inhibition of growth at 10 µM (HCC 2998) [%]	further results
COc1ccc(C2C3=C(CCCC3)Nc3nc(-c4ccccc4)[nH]c(=O)c32)cc1OC (configuration not stated)	< 10	< 10	< 10	< 10	< 10	12.6	< 10	21.1	21.2	< 10	< 10	< 10	13.5	< 10	13.2	< 10	< 10	15.9	< 10	< 10	inhibition of growth at 10 µM (HT-29): < 10%; inhibition of growth at 10 µM (NCI-H226): 15.9%; inhibition of growth at 10 µM (SK-MEL-5): 10.9%; inhibition of growth at 10 µM (HL-60(TB)): < 10%; inhibition of growth at 10 µM (SNB-75): 28.4%; inhibition of growth at 10 µM (786-0): < 10%; inhibition of growth at 10 µM (SF-295): < 10%; inhibition of growth at 10 µM (HOP-92): 13.3%; inhibition of growth at 10 µM (NCI-H23): < 10%; inhibition of growth at 10 µM (IGROV-1): < 10%; inhibition of growth at 10 µM (ACHN): 18%; inhibition of growth at 10 µM (MOLT-4): < 10%; inhibition of growth at 10 µM (SN12C): 10.8%; inhibition of growth at 10 µM (M14): < 10%
COc1ccc(C2C3=C(CCCC3)Nc3nc(-c4ccc(N(C)C)cc4)[nH]c(=O)c32)cc1OC (configuration not stated)	< 10	< 10	< 10	< 10	< 10	< 10	< 10	14.9	10.8	< 10	< 10	< 10	11.4	< 10	21.7	< 10	< 10	< 10	< 10	< 10	inhibition of growth at 10 µM (HT-29): < 10%; inhibition of growth at 10 µM (NCI-H226): 13.6%; inhibition of growth at 10 µM (SK-MEL-5): < 10%; inhibition of growth at 10 µM (HL-60(TB)): < 10%; inhibition of growth at 10 µM (SNB-75): < 10%; inhibition of growth at 10 µM (786-0): < 10%; inhibition of growth at 10 µM (SF-295): < 10%; inhibition of growth at 10 µM (HOP-92): < 10%; inhibition of growth at 10 µM (NCI-H23): < 10%; inhibition of growth at 10 µM (IGROV-1): < 10%; inhibition of growth at 10 µM (ACHN): < 10%; inhibition of growth at 10 µM (MOLT-4): < 10%; inhibition of growth at 10 µM (SN12C): 12.9%; inhibition of growth at 10 µM (M14): < 10%
Clc1ccc(C2C3=C(CCCC3)Nc3ncn4nc(-c5ccccc5)nc4c32)cc1 (configuration not stated)	< 10	< 10	< 10	< 10	10.2	< 10	12.3	14.7	23.1	< 10	< 10	< 10	19.7	< 10	20.6	< 10	< 10	11.5	< 10	< 10	inhibition of growth at 10 µM (HT-29): 14.4%; inhibition of growth at 10 µM (NCI-H226): 15.2%; inhibition of growth at 10 µM (SK-MEL-5): < 10%; inhibition of growth at 10 µM (HL-60(TB)): < 10%; inhibition of growth at 10 µM (SNB-75): 10.5%; inhibition of growth at 10 µM (786-0): < 10%; inhibition of growth at 10 µM (SF-295): < 10%; inhibition of growth at 10 µM (HOP-92): 14%; inhibition of growth at 10 µM (NCI-H23): 11.7%; inhibition of growth at 10 µM (IGROV-1): < 10%; inhibition of growth at 10 µM (ACHN): < 10%; inhibition of growth at 10 µM (MOLT-4): 11%; inhibition of growth at 10 µM (SN12C): < 10%; inhibition of growth at 10 µM (M14): < 10%
